The text below walks through data of EP4356929A1, “ANTIFIBROTIC FORMULATION FOR OPHTHALMIC TREATMENT” (Universität Rostock, priority 2022, dated 2024).

A short description of this series: physchem. Format: physicochemical. As to conditions: aqueous gamma-cyclodextrin 200 mg/ml. On the procedure:
This hydrogel can then be loaded with JM, which forms a host-guest complex with the yCD molecules Fig. 2 the amount of chlorine in various EPI crosslinked hydrogel samples was quantified. The EPI contains chlorine, but the final crosslinked hydrogel should not. Gels washed at 37°C in DI water were given either three 1-hour washes (short wash) or two 1-hour washes followed by an overnight wash with water or Ethanol. […] Fig. 3 the maximum solubility of Josamycin in aqueous solutions of various yCD concentrations was measured. Soluble JM was measured by HPLC. […] The amount of JM released was measured over time and expressed as a percent of the total JM initially loaded into the gel. Most of the JM was released within the first 96 hrs. […] On the left are molded and washed gels, which have been completely dried. On the right is a fully rehydrated gel which is almost completely transparent. […] The total drug loading was linearly related to the amount of josamycin in the loading solution.
The first formulation developed is a solution of yCD and JM. Solutions of JM and yCD can be made up to 18.9 mg/ml JM with 200 mg/ml yCD. These solutions are formed by simply mixing the JM and yCD in water or PBS until dissolved. This liquid formulation can then be sterilized via syringe filter before use. The solution is suitable for application to the eye as an eye drop or injection during or after surgery. […]

`CO[C@@H]1[C@@H](O[C@@H]2O[C@H](C)[C@@H](O[C@H]3C[C@@](C)(O)[C@@H](OC(=O)CC(C)C)[C@H](C)O3)[C@H](N(C)C)[C@H]2O)[C@@H](CC=O)C[C@@H](C)[C@@H](O)/C=C/C=C/C[C@@H](C)OC(=O)C[C@H]1OC(C)=O` [JM, josamycin] showed a solubility not above 18.9 mg/mL.

One may read the solubility as the concentration that dissolves in the medium under given conditions. A higher solubility goes with a readily soluble substance.
